Test results as given in BindingDB's records for doi:10.1016/j.bmcl.2003.07.021 (Vicuron Pharmaceuticals, 2003).

Target: DNA gyrase (Escherichia coli)
Assay: Inhibitory concentration against Escherichia coli by Escherichia coli DNA gyrase gel-based supercoil assay

- IC50: 12.5 µM
Structure (SMILES): CCOC(=O)c1cn(CC)c2cc(N3CCN(C(=O)c4ccc(N5C[C@H](CNC(C)=O)OC5=O)cc4F)CC3)c(F)cc2c1=O [7-(4-{4-[(S)-5-(Acetylamino-methyl)-2-oxo-oxazolidin-3-yl]-2-fluoro-benzoyl}-piperazin-1-yl)-1-ethyl-6-fluoro-4-oxo-1,4-dihydro-quinoline-3-carboxylic acid ethyl ester]
